These results are taken from US20250134938A1 (priority 2023, published 2025).

One may read the MIC as the least concentration at which growth counts as inhibited. As usually defined, the inhibition is the relative decrease from the control value, in per cent.

For one series, the system named is L. lactis CAB701 strain. Briefly: Antibiotic resistance by E-test (MIC). In kind it is cell-based, Lactococcus lactis subsp. lactis. The protocol:
The value at the end of the strip pointed by the inhibitory ring was determined as the minimum inhibitory concentration (MIC).

Series [1] addresses T1, porcine pancreatic lipase type II (Sus scrofa, UniProt P00591).
T1 construct: purchased Sigma
T1 sequence (P00591 1-450): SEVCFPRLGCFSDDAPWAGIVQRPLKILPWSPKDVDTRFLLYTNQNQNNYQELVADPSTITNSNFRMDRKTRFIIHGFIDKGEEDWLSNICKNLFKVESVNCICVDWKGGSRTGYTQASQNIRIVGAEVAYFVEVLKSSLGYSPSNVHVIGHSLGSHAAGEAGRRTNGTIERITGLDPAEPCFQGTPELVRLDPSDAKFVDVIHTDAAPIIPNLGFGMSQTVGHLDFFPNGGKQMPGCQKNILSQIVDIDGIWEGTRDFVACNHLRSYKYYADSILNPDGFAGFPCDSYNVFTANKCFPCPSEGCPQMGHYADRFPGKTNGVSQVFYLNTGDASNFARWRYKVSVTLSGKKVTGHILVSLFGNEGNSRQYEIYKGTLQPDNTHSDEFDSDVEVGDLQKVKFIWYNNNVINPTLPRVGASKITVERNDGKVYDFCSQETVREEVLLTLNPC
Put plainly: Inhibition of pancreatic lipase. In kind it is biochemical. As to conditions: 1000 μg/mL; read-out: Pancreatic lipase inhibition rate (%). The protocol: 50 mg of porcine pancreatic lipase type II (Sigma) was suspended in 10 mL of 10 mM Tris-HCl buffer adjusted to pH 8.0, vortexed for 15 minutes, and centrifuged at 4000 rpm for 10 minutes at 18° C. The supernatant was used as an enzyme solution. As a substrate, p-nitrophenyl butyrate (Sigma-Aldrich (Schnelldorf, Germany)) dissolved in acetonitrile to 10 mM was used. […] Tertiary distilled water was used as a negative control group. […] After adding 10 μL of a substrate solution, followed by reaction for 5 minutes at 37° C., absorbance was measured using a microplate reader at 405 nm, which is the maximum absorbance of p-nitrophenol. Pancreatic lipase inhibition rate (%)=[(negative control absorbance-sample absorbance)/negative control absorbance]×100

[2] abbreviates: Lactococcus lactis, CAB701STRAIN, E-test, MRS agar, 37° C., 72 hours, read-out: MIC.

In brackets after ≈: the same amount, converted by molar mass. Like-named read-outs stand apart in the source and are kept apart here.

Turning to `CC1(C)S[C@@H]2[C@H](NC(=O)[C@H](N)c3ccccc3)C(=O)N2[C@H]1C(=O)O` [Ampicillin], the Evaluation entry in the series with L. lactis CAB701 strain was “Allowed”. Further, the minimal inhibitory concentration (MIC) in the series on L. lactis CAB701 strain (setting [2]) was found to be 0.094 µg/mL (≈ 0.269 µM). Consider `O=C(N[C@H](CO)[C@H](O)c1ccc([N+](=O)[O-])cc1)C(Cl)Cl` [Chloramphenicol], for which the Evaluation entry in the series on L. lactis CAB701 strain was “Allowed”. In addition, in the series on L. lactis CAB701 strain (setting [2]), the minimum inhibitory concentration (MIC) is 1.5 µg/mL (≈ 4.64 µM). For `CCC[C@@H]1C[C@@H](C(=O)N[C@@H]([C@H]2O[C@H](SC)[C@H](O)[C@@H](O)[C@H]2O)[C@H](C)Cl)N(C)C1` [Clindamycin], in the series with L. lactis CAB701 strain, the Evaluation result is listed as “Allowed”. Besides, the minimal inhibitory concentration (MIC) in the series with L. lactis CAB701 strain (setting [2]) is 0.25 µg/mL (≈ 0.588 µM). For the compound `CC[C@H]1OC(=O)[C@H](C)[C@@H](O[C@H]2C[C@@](C)(OC)[C@@H](O)[C@H](C)O2)[C@H](C)[C@@H](O[C@@H]2O[C@H](C)C[C@H](N(C)C)[C@H]2O)[C@](C)(O)C[C@@H](C)C(=O)[C@H](C)[C@@H](O)[C@]1(C)O` [Erythromycin], the Evaluation entry in the series with L. lactis CAB701 strain is “Allowed”. Turning to `NC[C@H]1O[C@H](O[C@H]2[C@H](O)[C@@H](O[C@H]3O[C@H](CO)[C@@H](O)[C@H](N)[C@H]3O)[C@H](N)C[C@@H]2N)[C@H](O)[C@@H](O)[C@@H]1O` [Kanamycin], in the series with L. lactis CAB701 strain, the Evaluation entry is recorded as “Allowed”. Moreover, in the series on L. lactis CAB701 strain (setting [2]), the MIC is 8 µg/mL (≈ 16.5 µM). Take `[H]/N=C(/N)N[C@H]1[C@H](O)[C@@H](O)[C@H](O[C@@H]2O[C@@H](C)[C@](O)(C=O)[C@H]2O[C@@H]2O[C@@H](CO)[C@H](O)[C@@H](O)[C@@H]2NC)[C@@H](N/C(N)=N\[H])[C@@H]1O` [Streptomycin]: the Evaluation result in the series with L. lactis CAB701 strain was “Allowed”. The MIC in the series with L. lactis CAB701 strain (setting [2]) was determined as 16 µg/mL (≈ 27.5 µM). As to `CN(C)[C@@H]1C(O)=C(C(N)=O)C(=O)[C@@]2(O)C(O)=C3C(=O)c4c(O)cccc4[C@@](C)(O)[C@H]3C[C@@H]12` [Tetracycline], in the series on L. lactis CAB701 strain (setting [2]), the MIC stood at 0.094 µg/mL (≈ 0.212 µM). Also, the Evaluation result in the series on L. lactis CAB701 strain (MIC against EFSA cut-off value) is recorded as “Allowed”. In the series on L. lactis CAB701 strain (Lactococcus lactis, CAB701STRAIN, 72 h), `CN[C@H](CC(C)C)C(=O)N[C@H]1C(=O)N[C@@H](CC(N)=O)C(=O)N[C@H]2C(=O)N[C@H]3C(=O)N[C@H](C(=O)N[C@H](C(=O)O)c4cc(O)cc(O)c4-c4cc3ccc4O)[C@H](O)c3ccc(c(Cl)c3)Oc3cc2cc(c3O[C@@H]2O[C@H](CO)[C@@H](O)[C@H](O)[C@H]2O[C@H]2C[C@](C)(N)[C@H](O)[C@H](C)O2)Oc2ccc(cc2Cl)[C@H]1O` [Vancomycin] showed a minimal inhibitory concentration (MIC) of 0.38 µg/mL (≈ 0.262 µM). Further, the Evaluation entry in the series on L. lactis CAB701 strain (MIC against EFSA cut-off value) is on record as “Allowed”. As to `CCCCCCCCCCC[C@@H](C[C@@H]1OC(=O)[C@H]1CCCCCC)OC(=O)[C@H](CC(C)C)NC=O` [orlistat], the inhibition at 1000 µg/mL (stock) in series [1] stood at 28.6 ± 6.2%. In the series with L. lactis CAB701 strain (E-test), Gentamicin came in with a minimum inhibitory concentration (MIC) of 3 µg/mL. For the same compound, the “MIC” value against L. lactis CAB701 strain (E-test, MRS agar, 37° C., 72 hours) worked out at 3 µg/mL. Besides, the Evaluation result in the series with L. lactis CAB701 strain (MIC against EFSA cut-off value) is reported as “Allowed”.
